Measured values as given in patent publication US6559170B1, “Pyridine derivatives having fungicidal activity and processes to produce and use same” (Dow AgroScience LLC, priority 1999, dated 2003).

Legend:
Erysiphe graminis—ERYSGT = test: Powdery Mildew of Wheat, 1-day protectant whole plant test; format: in vivo; settings: 100 ppm spray, 1-day protectant (1DP), wheat cultivar Monon
[1] = system: Leptosphaeria nodorum—LEPTNO; test: Glume blotch of wheat, 1-day protectant whole plant test; format: in vivo; settings: 100 ppm spray, 1-day protectant (1DP), wheat cultivar Monon
[2] = system: Phytophthora infestans—PHYTIN; format: in vivo; settings: 100 ppm spray, 1-day protectant (1DP), tomatoes cultivar Rutgers
[3] = system: Puccinia recondita—PUCCRT; test: Brown rust of wheat, 1-day protectant whole plant test; format: in vivo; settings: 100 ppm spray, 1-day protectant (1DP), wheat cultivar Monon

| SMILES | ERYSGT percent control of the plant disease compared with untreated, inoculated plants (Erysiphe graminis—ERYSGT) | LEPTNO percent control of the plant disease compared with untreated, inoculated plants [1] | PHYTIN percent control of the plant disease compared with untreated, inoculated plants [2] | PUCCRT percent control of the plant disease compared with untreated, inoculated plants [3] | melting point |
| --- | --- | --- | --- | --- | --- |
| CNC(=O)C(=NOC)c1ccccc1COc1ncc(Sc2ccccc2)cc1Cl [Compound 3, 2-Methoxyimino-N-methyl-[2-(3-chloro-5-phenylthio-2-pyridyloxy)methylphenyl]acetamide] | 85% | 90% | 90% | 98% | 84 to 86 °C |
| CNC(=O)C(=NOC)c1cccc(Cl)c1COc1ccc(Sc2ccc(C)cc2)cn1 [Compound 4, 2-Methoxyimino-N-methyl-{3-chloro-2-[5-(4-methylphenyl)thio-2-pyridyloxy]methylphenyl}acetamide] | 67% | 98% | 89% | 99% | 100 to 102 °C |
| CNC(=O)C(=NOC)c1cccc(Cl)c1COc1ccc(Sc2ccc(Cl)cc2)cn1 [Compound 5, 2-Methoxyimino-N-methyl-{3-chloro-2-[5-(4-chlorophenyl)thio-2-pyridyloxy]methylphenyl}acetamide] | 85% | 98% | 99% | 100% | 116 to 118 °C |
| CNC(=O)C(=NOC)c1ccccc1COc1ccc(Sc2ccccc2)cn1 [Compound 6, 2-Methoxyimino-N-methyl-[2-(5-phenylthio-2-pyridyloxy)methylphenyl]acetamide] | 80% | 98% | 90% | 98% | 95 to 96 °C |
| CNC(=O)C(=NOC)c1ccccc1COc1cccc(Sc2ccccc2F)n1 [Compound 27] | 77% | 98% | 100% | 100% |  |
| CNC(=O)C(=NOC)c1ccccc1COc1cccc(Sc2ccc(Cl)cc2C)n1 [Compound 28] | 98% | 98% | 100% | 100% |  |
| CNC(=O)C(=NOC)c1ccccc1COc1cccc(Sc2ccccc2C(F)(F)F)n1 [Compound 29] | 98% | 78% | 100% | 100% |  |
| CNC(=O)C(=NOC)c1ccccc1COc1cccc(Sc2cccc(F)c2)n1 [Compound 30] | 98% | 98% | 100% | 100% |  |
| CNC(=O)C(=NOC)c1ccccc1COc1cccc(Sc2cccc3ccccc23)n1 [Compound 31] | 92% | 98% | 100% | 100% |  |
| CNC(=O)C(=NOC)c1ccccc1COc1nc(Sc2ccccc2)c(F)cc1F [Compound 32] | 77% | 98% | 100% | 100% |  |
| CCc1ccccc1Sc1cccc(OCc2ccccc2C(=NOC)C(=O)NC)n1 [Compound 33] | 92% | 98% | 100% | 100% |  |
| CNC(=O)C(=NOC)c1cccc(F)c1COc1cccc(Sc2ccccc2)n1 [Compound 34] | 85% | 98% | 94% | 100% |  |
